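Step 1: Grow cells in 96-well plates. Step 2: Expose to compound for 48 hours at 5 concentrations. Step 3: Interpolate endpoints linearly; if unreached, use highest concentration. At the GI50, growth is halved.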 Calls of active or inactive are those of the source. Rule as the data show it: active = GI50 up to about 1.1 µM and inactive = higher.

What all share (assay): growth of human tumour cells (NCI), 48 h
Assay [1] concerns M14.
For assay [2], the system named is IGROV-1.
In assay [3] the test system is RXF 393.
In assay [4] the test system is MDA-MB-231.
Assay [5] deals with OVCAR-3.
Assay [6] has as its system A549.
Assay [7] relates to HL-60.
Assay [8] relates to NCI-H460.
In assay [9] the test system is EKVX.
Assay [10] has as its system BT-549.
For assay [11], the system named is OVCAR-5.
Assay [12] concerns RPMI-8226.
The subject of assay [13] is SK-MEL-28.
In assay [14] the test system is SK-OV-3.
In assay [15] the test system is SK-MEL-2.
Assay [16] concerns A498.
For assay [17], the system named is KM12.
Assay [18] concerns NCI/ADR-RES.
Assay [19] deals with OVCAR-4.
The subject of assay [20] is MCF7.

As for `C=CCN(c1cc(OC)c2[nH]c(C(=O)O)c(C)c2c1[N+](=O)[O-])S(C)(=O)=O`, the GI50 in assay [1], in assay [2], in assay [3], in assay [4], in assay [5] and in assay [6] was > 100 µM (inactive) each time. Further, the GI50 in assay [7], in assay [8], in [9], in [10], in assay [11] and in assay [12] was > 100 µM (inactive) each time. Further, the GI50 in [13], in assay [14], in assay [15], in assay [16], in assay [17] and in assay [18] was > 100 µM (inactive) in each case. The GI50 in assay [19] and in [20] was > 100 µM (inactive) throughout.

Turning to `CCOC(NC(=O)CC)(C(F)(F)F)C(F)(F)F`, the GI50 is > 100 µM (inactive) in assay [1]; > 100 µM (inactive) in assay [2]; 0.145 µM (active) in assay [3]; > 100 µM (inactive) in [4]; > 100 µM (inactive) in assay [5]; > 100 µM (inactive) in [6]. Also, the GI50 in assay [7], in [8], in [9], in assay [10], in assay [11] and in assay [12] was > 100 µM (inactive) each time. Also, the GI50 in assay [13], in assay [14], in assay [15], in assay [16], in assay [17] and in assay [18] was > 100 µM (inactive) each time. Besides, the GI50 in assay [20] is > 100 µM (inactive).

With `C(/C=N/c1ccccc1)=C(/Nc1ccccc1)c1ccc2ccccc2c1`, the GI50 in [1] was 1.87 µM (inactive); in [2], 2.88 µM (inactive); in assay [3], 1.66 µM (inactive); in assay [4], 1.29 µM (inactive); in [5], 1.46 µM (inactive); in [6], 4.08 µM (inactive). Also, the GI50 in assay [7] is 1.5 µM (inactive); in assay [8], 2.81 µM (inactive); in [10] it was 1.08 µM (active); in [11], 2.51 µM (inactive); in assay [12] it was 1.79 µM (inactive); in assay [13], 0.231 µM (active). Further, the GI50 in assay [14] was 2.76 µM (inactive); in assay [15], 5.55 µM (inactive); in assay [16], 12.4 µM (inactive); in assay [17], 1.78 µM (inactive); in [18], 1.5 µM (inactive); in assay [19] it was 1.99 µM (inactive). Moreover, the GI50 in assay [20] was 3.18 µM (inactive).

As for `COc1ccc2c(c1)CC[C@@H]1[C@@H]2CC[C@]2(C)C(=O)/C(=C/c3cc(OC)c(OC)c(OC)c3)C[C@@H]12`, the GI50 in assay [1] is 23.2 µM (inactive); in [3], 29.6 µM (inactive); in [4], 18.1 µM (inactive); in assay [5], 19.5 µM (inactive); in assay [6] it was 40.9 µM (inactive); in assay [7], > 100 µM (inactive). For the same compound, the GI50 in [8] was 31.8 µM (inactive); in assay [9], 61.2 µM (inactive); in assay [10], 26.3 µM (inactive); in assay [11] it was 24.4 µM (inactive); in assay [12], > 100 µM (inactive); in assay [14] it was 44 µM (inactive). Also, the GI50 in assay [15] was 19 µM (inactive); in assay [16], 59 µM (inactive); in [17] it was 29 µM (inactive); in assay [18], 15.4 µM (inactive); in [19] it was 40.4 µM (inactive); in assay [20], 42.5 µM (inactive).

Regarding `CSc1nc(C)c2c(n1)SCC2`, the GI50 in [1], in assay [2], in assay [3], in [4], in [5] and in assay [6] was > 10 µM (inactive) in each case. The GI50 in assay [7], in assay [8], in [9], in assay [10], in assay [11] and in assay [12] was > 10 µM (inactive) each time. Further, the GI50 in [13], in assay [14], in [16], in assay [17], in [18] and in assay [19] was > 10 µM (inactive) in each case. Further, in [20], the GI50 was > 10 µM (inactive).

Consider `CCOC(=O)C1(C/C=C\CBr)CCCCCCC1=O` (configuration not stated), for which the GI50 in assay [1], in assay [2], in [3], in assay [4], in assay [6] and in [7] was > 100 µM (inactive) throughout. The GI50 in [9], in assay [10], in assay [11], in assay [13], in assay [14] and in assay [15] was > 100 µM (inactive) each time. Moreover, the GI50 in [16], in assay [17], in [18], in assay [19] and in assay [20] was > 100 µM (inactive) in each case.

`O=C(NC(OCc1ccccc1)(C(F)(F)F)C(F)(F)F)OCc1ccccc1`: the GI50 is 18.9 µM (inactive) in [1]; 15.1 µM (inactive) in assay [2]; 12.5 µM (inactive) in [3]; 17.7 µM (inactive) in [4]; 15.3 µM (inactive) in assay [5]; 15 µM (inactive) in assay [6]. For the same compound, the GI50 in assay [7] is 17.1 µM (inactive); in assay [8], 16.1 µM (inactive); in assay [9], 15.2 µM (inactive); in assay [10], 15.4 µM (inactive); in [11], 14.3 µM (inactive); in [12], 16.4 µM (inactive). For the same compound, the GI50 was 17.7 µM (inactive) in assay [13]; 17.5 µM (inactive) in assay [14]; 15.3 µM (inactive) in assay [15]; 17.7 µM (inactive) in assay [16]; 16.4 µM (inactive) in assay [17]; 12.6 µM (inactive) in assay [18]. Moreover, the GI50 in [20] was 16.4 µM (inactive).

Turning to `Cc1sc2nc3n(c(=O)c2c1C)N=CN(c1ccc(F)cc1)C3`, the GI50 in assay [1] is > 100 µM (inactive); in assay [2], 61.9 µM (inactive); in [3], > 100 µM (inactive); in assay [4], 59 µM (inactive); in [5], > 100 µM (inactive); in assay [6], 43.9 µM (inactive). In addition, the GI50 is 44.5 µM (inactive) in assay [8]; > 100 µM (inactive) in assay [9]; > 100 µM (inactive) in [10]; > 100 µM (inactive) in assay [11]; > 100 µM (inactive) in assay [12]; > 100 µM (inactive) in assay [13]. Moreover, the GI50 in assay [14] was 52 µM (inactive); in assay [15] it was > 100 µM (inactive); in assay [16], 26.9 µM (inactive); in [17], > 100 µM (inactive); in [18], > 100 µM (inactive); in assay [19], 18.7 µM (inactive). Besides, the GI50 in [20] is > 100 µM (inactive).

With `OCc1cc2c(ccc3sc4ccc5sc6ccc7ncccc7c6c5c4c32)s1`, the GI50 in assay [2] is 7.29 µM (inactive); in assay [3], 11.7 µM (inactive); in assay [4], 4.17 µM (inactive); in assay [5], 16.9 µM (inactive); in assay [6], 11.4 µM (inactive); in assay [7] it was 10.1 µM (inactive). Besides, the GI50 in assay [8] was 7.08 µM (inactive); in assay [9], 12.4 µM (inactive); in assay [10], 14.3 µM (inactive); in assay [11], 15.3 µM (inactive); in [12] it was 13.6 µM (inactive); in assay [13] it was 27.2 µM (inactive). Also, the GI50 was 18.4 µM (inactive) in assay [14]; 14.5 µM (inactive) in assay [15]; 23.5 µM (inactive) in assay [16]; 6.47 µM (inactive) in assay [17]; 21.7 µM (inactive) in assay [18]; 25.2 µM (inactive) in assay [19]. For the same compound, the GI50 in [20] is 17.8 µM (inactive).

For `NC(=O)C1CCCN1C(=O)C(Cc1c[nH]cn1)NC(=O)C1CCCC1` (configuration not stated), the GI50 in [1], in assay [2], in [3], in [4], in assay [5] and in assay [6] was > 100 µM (inactive) each time. In addition, the GI50 in assay [7], in assay [8], in [9], in [10], in [11] and in [12] was > 100 µM (inactive) each time. For the same compound, the GI50 in assay [13] is > 100 µM (inactive); in assay [14], > 100 µM (inactive); in assay [16], 23.4 µM (inactive); in assay [17], > 100 µM (inactive); in [18], > 100 µM (inactive); in assay [19], > 100 µM (inactive). The GI50 in assay [20] is > 100 µM (inactive).

With `O=C1OC(C2Cc3ccc4ccccc4c3C2=O)c2ccccc21` (configuration not stated), the GI50 was 92.9 µM (inactive) in assay [1]; 39.4 µM (inactive) in assay [2]; 17.4 µM (inactive) in assay [3]; > 100 µM (inactive) in [4]; 30.5 µM (inactive) in assay [5]; 36.9 µM (inactive) in assay [6]. Moreover, the GI50 is 50 µM (inactive) in assay [7]; 49.7 µM (inactive) in assay [8]; 29.6 µM (inactive) in assay [9]; 37 µM (inactive) in assay [10]; > 100 µM (inactive) in assay [11]; 25.9 µM (inactive) in [12]. The GI50 was 55.5 µM (inactive) in assay [13]; 47.8 µM (inactive) in assay [15]; > 100 µM (inactive) in assay [16]; 28.3 µM (inactive) in assay [17]; 49.2 µM (inactive) in assay [18]; 24.4 µM (inactive) in assay [19]. In assay [20], the GI50 is 42.8 µM (inactive).

For the origin of these results see ChEMBL document CHEMBL1201862, “PubChem BioAssay data set” (2004).
